{"source": "patent US6468983B2", "about": "“RNase L activators and antisense oligonucleotides effective to treat telomerase-expressing malignancies” (The Cleveland Clinic Foundation, priority 1997, dated 2002)", "key": {"[1]": {"system": "telomerase RNA (hTR)", "test": "RT-PCR for telomerase RNA in oligonucleotide-treated U251-MG cells", "type": "cell-based, human", "details": "oligonucleotide 5 μM, 5 hours treatment", "procedure": "Chimeric oligonucleotides were synthesised on solid supports and purified as described previously (Torrence et al 1993; Lesiak et al 1993; Xiao et al 1994, 1996; Cirino et al 1997). Tumor cells were seeded at 3×10^5 cells/well (3 ml) in 6-well plates and incubated overnight at 37° C. Cells were then treated with oligonucleotides (5 μM). Five hours later total RNA was isolated by using Trizol solution (GIBCO BRL, Grand Island, N.Y.). Expression of telomerase RNA was determined with RT-PCR. The RNA was reverse transcribed into complementary DNA (cDNA) with random oligos used as a primer, and then the cDNA was diluted three times with buffer 10×PCR buffer (Perkin-Elmer, Norwalk, Conn.) at a final concentration of 1:4. The DNA at each dilution was amplified using primers to antisense and sense sequences on opposite sides of the human telomerase RNA sequence, 5′-[…]-3′ (SEQ ID NO:4) and 5′[…]-3′ […], respectively, or to the GAPDH coding sequence, 5′-[…]-3′ […] and 5′[…]-3′ (SEQ ID NO:7), respectively, producing DNA fragments of 400 bp for telomerase cDNA and 508 bp for the GAPDH cDNA, respectively. The PCR went for 30 cycles (94° C., 1 min; 55° C., 1 min; 72° C., 2 min) for telomerase and 30 cycles (94° C., 1 min; 60° C., 1 min; 74° C., 3 min) for GAPDH. The PCR products were analyzed by 1.2% agarose gel electrophoresis and ethidium bromide staining.\nAliquots of U251-MG cells were treated with the “active” oligonucleotide and the two controls for 5 hours. RNA was then prepared from these cells and subjected to RT-PCR to detect telomerase RNA. […] In contrast, telomerase RNA (hTR) was present in cells treated with the control oligonucleotides; spA2-anti-hTR and spA4-anti-(M6)hTR. Thus, hTR could be selectively destroyed in U251-MG cells. Since the RT-PCR assay is not quantitative, it was not possible to assess whether treatment with the spA2-anti-hTR , which has the fully complementary target sequence, had any antisense effect by itself (see below). […]"}, "[2]": {"system": "breast cancer cell line, MDA468", "test": "Viable cell count, daily oligonucleotide plus lipofectamine", "type": "cell-based, human", "details": "MDA468, 0.5 micromolar daily plus lipofectamine", "procedure": "(§1) Cells (10,000/well) were seeded on 96 well tissue culture dishes, and treated every 24 hours. A 10× concentrated mixture of oligonucleotides plus lipofectamine in water was prepared containing 5 micromolar oligonucleotide and 80 microgram per ml lipofectamine™ (Gibco/BRL) and incubated for 10 min at room temperature. Media was removed from the cells, 10 microliters of the oligonucleotide/lipofectamine mixture was added directly to the cultured cells followed by 90 microliters of media plus serum. The media was changed with oligonucleotide/lipofectamine treatments every 24 h. Cells were passaged when the control cells reached confluency, and viable cells were counted after staining with Trypan Blue (GibcoBRL). The numbers of cells treated only with lipofectamine were used as the control to calculate percentages of cell survival or viability.\n(§2) Similarly, the viability of the breast cancer cell line, MDA468, was reduced by 64% by SpA4-anti-hTR, while the control oligonucleotides reduced cell viability by <20% (FIG. 6). Viability of the human melanoma cell line, A375, was reduced by 43% in three days by SpA4-anti-hTR, while the control oligonucleotides had no effect (FIG. 7). […] Viability of a third human melanoma cell line, SK-MEL-5, was reduced by 43% by SpA4-anti-hTR, with minimal effects by the control oligonucleotides (FIG. 7). Two prostate tumor cells lines, PC3 and DU145, were suppressed by SpA4-anti-hTR treatments by 45% and 60%, respectively (FIGS. 6 and 10). […] The viability of the malignant glioma cell line, U373, was reduced by about 60% in 3 days, with intermediate effects by the control oligonucleotides (FIG. 6). Therefore, the proliferation and survival of every tumor cell type tested was inhibited by SpA4-anti-hTR. […] In contrast, there was no apoptosis detected in the control cells treated with lipofectamine without oligonucleotide (FIG. 12 upper panel)."}, "[3]": {"system": "prostate tumor cell line DU145", "test": "Viable cell count, daily oligonucleotide plus lipofectamine", "type": "cell-based, human", "details": "DU145, 0.5 micromolar daily plus lipofectamine", "procedure": "as §1, §2"}, "[4]": {"system": "prostate tumor cell line PC3", "test": "Viable cell count, daily oligonucleotide plus lipofectamine", "type": "cell-based, human", "details": "PC3, 0.5 micromolar daily plus lipofectamine", "procedure": "as §1, §2"}, "[5]": {"system": "renal cell carcinoma cell line, RCC", "test": "Viable cell count, daily oligonucleotide plus lipofectamine", "type": "cell-based, human", "details": "0.5 micromolar daily plus lipofectamine", "procedure": "as §1, §2"}, "[6]": {"system": "human melanoma cell line, A375", "test": "Viable cell count, daily oligonucleotide plus lipofectamine", "type": "cell-based", "details": "A375, 0.5 micromolar daily plus lipofectamine", "procedure": "as §1, §2"}, "[7]": {"system": "human melanoma cell line, SK-MEL-2", "test": "Viable cell count, daily oligonucleotide plus lipofectamine", "type": "cell-based", "details": "SK-MEL-2, 0.5 micromolar daily plus lipofectamine", "procedure": "as §1, §2"}, "[8]": {"system": "human melanoma cell line, SK-MEL-5", "test": "Viable cell count, daily oligonucleotide plus lipofectamine", "type": "cell-based", "details": "SK-MEL-5, 0.5 micromolar daily plus lipofectamine", "procedure": "as §1, §2"}, "[9]": {"system": "U251-MG tumors", "test": "Subcutaneous xenografts in nude mice, intratumoral oligonucleotide", "type": "in vivo, Balb/c nude mice", "details": "for reduction in tumor size during the treatment period: intratumoral daily for 14 days, relative to starting size", "procedure": "(§3) U251-MG and U373 MG tumor cells (1.0×10^6 cells in 0.1 ml serum free DMEM and 0.1 ml Matrigel) were injected subcutaneously into the right flank of 8-12 week-old female Balb/c nude mice (5 mice for each treatment group). Tumor growth was monitored using calipers every 2- or 3-days. Tumor volume (V) was calculated as (L×W^2)/2, where L=length (mm) and W=width (mm). Oligonucleotide treatment was initiated when the tumors reached an average tumor volume of 60-100 mm^3 (about four to five weeks after injection). Oligonucleotides (5 nmol/20 microliter sterile distilled water) were administered by injecting them directly into the tumor every 24 hr for 7-14 days. Some experiments included lipofectamine at 1 microliter per 20 microliters final volume of oligonucleotide solution. Mice were sacrificed by cervical dislocation the day after the final injection and the tumors were removed, frozen rapidly and 12 μm sections were prepared for histological studies. During all of these experiments, which were approved by the CCF Research Programs Committee, the animals were housed and handled in accordance with the National Institutes of Health guidelines."}, "[10]": {"system": "U373-MG tumors", "test": "Subcutaneous xenografts in nude mice, intratumoral oligonucleotide", "type": "in vivo, Balb/c nude mice", "details": "5 nmol intratumoral daily for 7 days", "procedure": "as §3"}}, "note": "Values joined by “and” are separate entries in the source; they are usually repeats but may differ in a detail not shown here. Equal values may be shown once. “Also recorded” adds a separate entry of the source.", "data": [{"substance": "Sp5′A2′p(5′A2p)3-[(Bu)p]2-5′GCG CGG GGA GCA AAA GCA C3′-3′T5′ (antisense GCGCGGGGAGCAAAAGCAC; 5'-thiophosphate 2-5A tetramer, butanediol linkers, 3'-3'T cap, chemistry not fully specified) [spA4-anti-hTR, 2-5A tetramer linked by butanediol linkers to 19-mer antisense against human telomerase RNA nucleotides 76 to 94]", "values": [{"measurement": "telomerase RNA (hTR) detected by RT-PCR", "setting": "[1]", "value": "no detectable telomerase RNA"}, {"measurement": "effect on growth (in words)", "setting": "[2]", "value": "specifically suppressed growth"}, {"measurement": "reduction in viability", "setting": "[2]", "value": 64, "unit": "%"}, {"measurement": "effect on growth/viability (in words)", "setting": "[3]", "value": "specifically suppressed growth"}, {"measurement": "suppression of cells", "setting": "[3]", "value": 60, "unit": "%"}, {"measurement": "effect on growth/viability (in words)", "setting": "[4]", "value": "specifically suppressed growth"}, {"measurement": "suppression of cells", "setting": "[4]", "value": 45, "unit": "%"}, {"measurement": "effect on growth/viability (in words)", "setting": "[5]; 3 days", "value": "specifically suppressed growth"}, {"measurement": "reduction in viability", "setting": "[5]; three days", "value": 61, "unit": "%"}, {"measurement": "effect on growth/viability (in words)", "setting": "[6]", "value": "specifically suppressed growth"}, {"measurement": "reduction in viability", "setting": "[6]; three days", "value": 43, "unit": "%"}, {"measurement": "effect on growth/viability (in words)", "setting": "[7]", "value": "specifically suppressed growth"}, {"measurement": "survival", "setting": "[7]", "value": "< 0.1", "unit": "%"}, {"measurement": "effect on growth/viability (in words)", "setting": "[8]", "value": "specifically suppressed growth"}, {"measurement": "reduction in viability", "setting": "[8]", "value": 43, "unit": "%"}, {"measurement": "tumor growth (in words)", "setting": "[9]; 5 nmol intratumoral daily for 7 days", "value": "significantly suppressed the growth; also recorded: failed to grow progressively"}, {"measurement": "average net weight of the tumors after treatment", "setting": "[9]; 14 days treatment", "value": "54.0 ± 28.7", "unit": "mg"}, {"measurement": "further change in tumor size (in words)", "setting": "[9]; days 8-14 of the treatment compared with first 7 days", "value": "only a marginal additional reduction in size"}, {"measurement": "reduction in tumor size during the treatment period", "setting": "[9]", "value": "48% and 50%"}, {"measurement": "reduction in tumor size during the treatment period", "setting": "[9]; listed as 2-5A-anti-hTR", "value": 50, "unit": "%"}, {"measurement": "tumor growth (in words)", "setting": "[10]", "value": "significantly suppressed the growth; also recorded: failed to grow progressively"}]}]}
